Measured values taken from the NIST ThermoML archive (doi:10.1016/j.fluid.2010.10.028).

Assay: xn = mol fraction of the nth substance listed
Details: Liquid, Vibrating tube method

CC(C)=O [acetone] + CCCCCCC
Details	mass density [kg/m3]
357.56 K, 109800 kPa, x1 = 0.492	744.86
357.56 K, 109860 kPa, x1 = 0.611	755.29
357.56 K, 114650 kPa, x1 = 0.4	797.46
357.56 K, 114650 kPa, x1 = 0.8992	797.46
357.56 K, 114760 kPa, x1 = 0.492	747.47
357.56 K, 114840 kPa, x1 = 0.801	781.49
357.56 K, 114860 kPa, x1 = 0.611	758
357.56 K, 119620 kPa, x1 = 0.4	800.25
357.56 K, 119620 kPa, x1 = 0.8992	800.25
357.56 K, 119840 kPa, x1 = 0.611	760.62
357.56 K, 119850 kPa, x1 = 0.492	750.09
357.56 K, 124590 kPa, x1 = 0.4	802.96
357.56 K, 124590 kPa, x1 = 0.8992	802.96
357.56 K, 124850 kPa, x1 = 0.492	752.62
357.56 K, 124850 kPa, x1 = 0.611	763.18
357.56 K, 124850 kPa, x1 = 0.801	786.88
357.56 K, 129540 kPa, x1 = 0.4	805.62
357.56 K, 129540 kPa, x1 = 0.8992	805.62
357.56 K, 129840 kPa, x1 = 0.492	755.04
357.56 K, 129850 kPa, x1 = 0.611	765.68
357.57 K, 19850 kPa, x1 = 0.801	705.47
357.57 K, 24850 kPa, x1 = 0.801	711.56
357.57 K, 29850 kPa, x1 = 0.801	717.2
357.57 K, 39860 kPa, x1 = 0.801	727.56
357.57 K, 44860 kPa, x1 = 0.801	732.3
357.57 K, 49830 kPa, x1 = 0.801	736.79
357.57 K, 54840 kPa, x1 = 0.801	741.09
357.57 K, 79870 kPa, x1 = 0.801	760
357.57 K, 109760 kPa, x1 = 0.801	778.61
357.57 K, 119850 kPa, x1 = 0.801	784.21
357.57 K, 129840 kPa, x1 = 0.801	789.47
367.47 K, 1110 kPa, x1 = 0.7024	653.24
367.47 K, 4830 kPa, x1 = 0.7024	660.5
367.47 K, 9820 kPa, x1 = 0.7024	669.16
367.47 K, 14810 kPa, x1 = 0.7024	676.86
367.47 K, 19800 kPa, x1 = 0.7024	683.87
367.47 K, 24870 kPa, x1 = 0.7024	690.44
367.47 K, 29900 kPa, x1 = 0.7024	696.42
367.47 K, 29980 kPa, x1 = 0.4	723.61
367.47 K, 29980 kPa, x1 = 0.8992	723.61
367.47 K, 34870 kPa, x1 = 0.7024	701.98
367.47 K, 39870 kPa, x1 = 0.7024	707.22
367.47 K, 44860 kPa, x1 = 0.7024	712.14
367.47 K, 49850 kPa, x1 = 0.7024	716.78
367.47 K, 54840 kPa, x1 = 0.7024	721.18
367.47 K, 59880 kPa, x1 = 0.4	753.02
367.47 K, 59880 kPa, x1 = 0.8992	753.02
367.47 K, 64830 kPa, x1 = 0.7024	729.41
367.47 K, 69810 kPa, x1 = 0.7024	733.25
367.47 K, 79780 kPa, x1 = 0.7024	740.5
367.47 K, 89740 kPa, x1 = 0.7024	747.21
367.47 K, 94830 kPa, x1 = 0.7024	750.48
367.47 K, 99830 kPa, x1 = 0.7024	753.58
367.47 K, 104830 kPa, x1 = 0.7024	756.58
367.47 K, 109810 kPa, x1 = 0.7024	759.49
367.47 K, 114820 kPa, x1 = 0.7024	762.32
367.47 K, 119810 kPa, x1 = 0.7024	765.08
367.47 K, 124820 kPa, x1 = 0.7024	767.78
367.47 K, 129810 kPa, x1 = 0.7024	770.39
367.48 K, 1150 kPa, x1 = 0.611	644.69
367.48 K, 5040 kPa, x1 = 0.4	687.92
367.48 K, 5040 kPa, x1 = 0.8992	687.92
367.48 K, 9850 kPa, x1 = 0.611	660.49
367.48 K, 10030 kPa, x1 = 0.4	696.45
367.48 K, 10030 kPa, x1 = 0.8992	696.45
367.48 K, 15010 kPa, x1 = 0.4	704.13
367.48 K, 15010 kPa, x1 = 0.8992	704.13
367.48 K, 19860 kPa, x1 = 0.611	675.16
367.48 K, 20000 kPa, x1 = 0.4	711.11
367.48 K, 20000 kPa, x1 = 0.8992	711.11
367.48 K, 24860 kPa, x1 = 0.611	681.55
367.48 K, 25000 kPa, x1 = 0.4	717.58
367.48 K, 25000 kPa, x1 = 0.8992	717.58
367.48 K, 29870 kPa, x1 = 0.611	687.49
367.48 K, 34860 kPa, x1 = 0.611	693
367.48 K, 39940 kPa, x1 = 0.4	734.49
367.48 K, 39940 kPa, x1 = 0.8992	734.49
367.48 K, 44850 kPa, x1 = 0.611	703
367.48 K, 44920 kPa, x1 = 0.4	739.45
367.48 K, 44920 kPa, x1 = 0.8992	739.45
367.48 K, 49910 kPa, x1 = 0.4	744.24
367.48 K, 49910 kPa, x1 = 0.8992	744.24
367.48 K, 49940 kPa, x1 = 0.611	707.7
367.48 K, 54900 kPa, x1 = 0.4	748.72
367.48 K, 54900 kPa, x1 = 0.8992	748.72
367.48 K, 54920 kPa, x1 = 0.611	712.06
367.48 K, 59830 kPa, x1 = 0.7024	725.38
367.48 K, 64860 kPa, x1 = 0.4	757.11
367.48 K, 64860 kPa, x1 = 0.8992	757.11
367.48 K, 64900 kPa, x1 = 0.611	720.16
367.48 K, 69840 kPa, x1 = 0.4	761.04
